According to publication PMC6352943, “Novel pyrazolo[3,4-d]pyrimidines: design, synthesis, anticancer activity, dual EGFR/ErbB2 receptor tyrosine kinases inhibitory activity, effects on cell cycle profile and caspase-3-mediated apoptosis” (Journal of Enzyme Inhibition and Medicinal Chemistry, 2019):
Where “and” joins values, the source holds several entries; their conditions need not be identical. Equal values may be shown once.

Experiments:
OVCAR-4 cells [1] = test: Cell cycle analysis by flow cytometry (PI); assay type: cell-based, human
Protocol: After treatment, the cells were washed twice with ice-cold PBS, collected by centrifugation, and fixed in ice-cold 70% (v/v) ethanol, washed with PBS, re-suspended with 0.1 mg/mL RNase, stained with […] propidium iodide (PI), and analysed by flow cytometry using FACS Calibur (Becton Dickinson)[31]. The cell cycle distributions were calculated using Cell-Quest software (Becton Dickinson).

ErbB2 = molecular target: T1, ErbB2 (Homo sapiens, UniProt P04626); test: ErbB2 kinase inhibition (HTScan HER2/ErbB2 Kinase Assay Kit); assay type: biochemical; conditions: mean ± SD of three experiments; read-out: IC50 for inhibitory activity against ErbB2 enzyme
T1 construct: purchased
Protocol: In brief, add 10 μL of 10 mM ATP to 1.25 ml of 6 μM substrate peptide. Dilute the mixture with dH20 to 2.5 ml. Transfer enzyme from −80 °C to ice. Allow enzyme to thaw on ice. Micro-centrifuge briefly at 4 °C. Return immediately to ice. […] Transfer 1.2 ml of DTT/Kinase buffer to each enzyme. […] Add 25 μL of ATP/substrate cocktail to 25 μL/well pre-incubated reaction cocktail/compound. Incubate reaction plate at room temperature for 30 min. Add 50 μL/well stop buffer to stop the reaction. Transfer 25 μL of each reaction and 75 μL dH2O/well to a 96-well streptavidin coated, plate and incubate at room temperature for 60 min. Wash three times with 200 μL/well phosphate-buffered saline (PBS). […] Add 100 μL/well primary antibody. Incubate at room temperature for 60 min and wash three times. Prepare appropriate dilution of horseradish peroxidase (HRP) labelled secondary antibody in PBS with 1% BSA. Add 100 μL/well secondary antibody solution. Incubate at room temperature for 30 min and wash five times. Add 100 μL/well 3,3′,5,5′-tetramethylbenzidine (TMB) substrate. Incubate at room temperature for 15 min. Add 100 μL/well of stop solution. Mix well and read the absorbance at 450 nm with a microtitre plate reader.

human active caspase-3 = test: Active caspase-3 level (ELISA) in OVCAR-4 cells; assay type: cell-based; conditions: OVCAR-4 cells treated at IC50 for 24 h
Protocol: The level of human active caspase-3 protein was evaluated using Invitrogen (Catalog KHO1091) ELISA kit. The manufacturer’s instructions were followed in the following procedures. Add 100 μL of the standard diluent buffer to the zero standard wells. Add 100 μL of standards and controls or diluted samples to the appropriate microtitre wells. Cover wells with and incubate for 2 h at room temperature. Thoroughly aspirate or decant solution from wells and discard the liquid. Pipette 100 μL of caspase-3 (active) detection antibody solution into each well. Cover plate and incubate for 1 h at room temperature. Add 100 μL Anti-Rabbit IgG HRP working solution to each well. Cover wells with the plate cover and incubate for 30 min at room temperature. Add 100 μL of stabilised chromogen to each well. The liquid in the wells will begin to turn blue. Incubate for 30 min at room temperature. Stop solution has been added to each well. The solution in the wells should change from blue to yellow. Read the plate within 2 h after adding the stop solution. Use a curve fitting software to generate the standard curve.
EGFR and ErbB2 tyrosine kinase inhibitors are well known to potentiate the intrinsic apoptotic pathway via increase in caspase-3 enzyme activity[34]^,[35].

NCI-H460 (EGFR-WT) = test: MTT cell viability assay; assay type: cell-based, human
Protocol: All of the other chemicals and reagents were from Sigma, or Invitrogen.
Measure the background absorbance of multiwell plates at 690 nm and subtract from the 570 nm measurement. […] Each experiment was carried out in triplicate.

OVCAR-4 cells [2] = test: Annexin V-FITC/PI apoptosis assay; assay type: cell-based, human
Protocol: Annexin V fluorescein isothiocyanate (FITC)/PI apoptosis detection kit (BD Biosciences) was used according to the manufacturer’s instructions to measure the apoptotic activity of compound 7d. OVCAR-4 cells were incubated with Annexin V-FITC. […] The cells then were collected by trypsinisation and 0.5 × 10^6 cells were washed twice with PBS and stained with 5 μL Annexin V-FITC and 5 μL PI in 1 × binding buffer for 15 min at room temperature in the dark. Analyses were performed using FACS Calibur flow cytometer (BD Biosciences, San Jose, CA).
The apoptotic activity of compound 7d was further studied using Annexin V-FITC assay, which includes dual staining using Annexin V, a Ca^2+-dependent protein, and Propidium iodide (PI). Annexin V binds to phosphatidylserine (PS) expressed only on the surface of the apoptotic cells and fluoresces green after interacting with the fluorochrome labelled annexin-V. On the other hand, PI stains DNA and enters only dead cells. This assay can give a differential analysis to the percentages of living, early apoptotic, late apoptotic and necrotic cells. […] Moreover, a significant increase in the percentage of Annexin-V positive cells (almost 9 folds more than control) occurred indicating an early apoptosis (lower right quadrant). In addition, an increase by 7 folds more than control in the percentage of PI positive cells (upper left quadrant) indicating necrotic cells. Some treated cells were in a late apoptotic stage (upper right quadrant), this was indicated by the significant increase in the percentage of Annexin V positive, PI positive cells (16 folds more than control).

NCI-H226 = test: MTT cell viability assay; assay type: cell-based; conditions: Homo sapiens, NCI-H226 lung cancer, 48 h, mean ± SD of three experiments, read-out: IC50 (concentration required for 50% inhibition of cell viability)
Protocol: Cell Line cells were obtained from American Type Culture Collection, cells were cultured using Dulbecco's Modified Eagle's medium (DMEM) (Invitrogen/Life Technologies) supplemented with 10% foetal bovine serum (FBS) (Hyclone), 10 μg/mL of insulin (Sigma), and 1% penicillin-streptomycin. All of the other chemicals and reagents were from Sigma, or Invitrogen. Plate cells (cells density 1.2 – 1.8 × 10,000 cells/well) in a volume of 100 µL complete growth medium and 100 μL of the tested compound per well in a 96-well plate for 24 h before the MTT assay.
Remove culture medium to a centrifuge tube. […] Add 2.0 to 3.0 ml of Trypsin EDTA solution to flask and observe cells under an inverted microscope until cell layer is dispersed. Add 6 to 8 ml of complete growth medium and aspirate cells by gently pipetting. […]
The 3–(4, 5-dimethylthiazol-2-yl)-2,5-diphenyltetrazolium bromide (MTT) method[30] of monitoring in vitro cytotoxicity is well suited for use with multiwell plates. […] The number of living cells in the presence or absence (control) of the various test compounds is directly proportional to the intensity of the blue colour, measured by spectrophotometry using (ROBONIK P2000 Spectrophotometer) at a wavelength of 570 nm. Measure the background absorbance of multiwell plates at 690 nm and subtract from the 570 nm measurement. […]

[3] = OVCAR-4, 7d at IC50 (1.74 μM), 24 h

T1 sequence (P04626 23-1255): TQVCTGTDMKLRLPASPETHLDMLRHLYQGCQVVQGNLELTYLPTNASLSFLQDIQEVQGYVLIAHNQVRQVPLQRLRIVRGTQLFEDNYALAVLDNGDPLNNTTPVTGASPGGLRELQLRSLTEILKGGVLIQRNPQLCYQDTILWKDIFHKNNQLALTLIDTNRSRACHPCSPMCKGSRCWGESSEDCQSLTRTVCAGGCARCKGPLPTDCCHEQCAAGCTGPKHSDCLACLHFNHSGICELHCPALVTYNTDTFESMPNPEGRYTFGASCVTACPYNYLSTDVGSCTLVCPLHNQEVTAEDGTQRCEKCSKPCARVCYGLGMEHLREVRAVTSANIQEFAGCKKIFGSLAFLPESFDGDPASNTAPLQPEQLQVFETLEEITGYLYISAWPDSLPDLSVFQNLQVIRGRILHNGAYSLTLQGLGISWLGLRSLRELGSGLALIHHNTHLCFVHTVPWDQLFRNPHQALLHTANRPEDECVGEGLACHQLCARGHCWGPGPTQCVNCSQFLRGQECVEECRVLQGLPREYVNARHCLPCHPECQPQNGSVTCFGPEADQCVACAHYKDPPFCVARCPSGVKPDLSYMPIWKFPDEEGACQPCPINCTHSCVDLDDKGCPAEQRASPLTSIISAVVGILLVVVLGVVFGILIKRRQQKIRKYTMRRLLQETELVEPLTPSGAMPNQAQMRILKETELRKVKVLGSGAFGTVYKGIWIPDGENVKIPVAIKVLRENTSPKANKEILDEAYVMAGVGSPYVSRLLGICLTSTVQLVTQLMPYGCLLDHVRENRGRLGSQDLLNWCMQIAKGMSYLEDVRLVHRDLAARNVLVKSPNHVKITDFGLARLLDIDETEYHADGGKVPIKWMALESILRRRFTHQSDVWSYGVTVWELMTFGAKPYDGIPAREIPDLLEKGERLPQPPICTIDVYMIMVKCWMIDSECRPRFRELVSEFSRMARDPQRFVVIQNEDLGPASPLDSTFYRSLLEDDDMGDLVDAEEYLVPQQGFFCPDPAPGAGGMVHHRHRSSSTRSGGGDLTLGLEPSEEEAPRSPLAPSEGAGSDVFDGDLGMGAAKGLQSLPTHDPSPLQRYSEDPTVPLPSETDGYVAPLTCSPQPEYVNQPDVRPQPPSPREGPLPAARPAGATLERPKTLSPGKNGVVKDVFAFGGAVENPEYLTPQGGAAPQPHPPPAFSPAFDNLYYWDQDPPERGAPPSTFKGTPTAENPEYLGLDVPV

Cc1nn(-c2ccc(F)cc2)c2ncnc(Nc3ccc(F)c(Cl)c3)c12 [Compound 7d, N-(3-Chloro-4-fluorophenyl)-1–(4-fluorophenyl)-3-methyl-1H-pyrazolo[3,4-d] pyrimidin-4-amine]
Cell cycle distribution %Apoptosis (pre-G1) (OVCAR-4 cells [1]; [3]): 21.71% | Cell cycle distribution %G0/G1 (OVCAR-4 cells [1]; [3]): 29.77% | Cell cycle distribution %G2/M (OVCAR-4 cells [1]; [3]): 36.44% | Cell cycle distribution %S (OVCAR-4 cells [1]; [3]): 33.79% | Increase in cells accumulated in pre-G1 phase compared to control (OVCAR-4 cells [1]; OVCAR-4, at IC50, 24 h): ~11 folds | Increase in percentage of cells at G2/M phases compared to control (OVCAR-4 cells [1]; OVCAR-4, at IC50, 24 h): 5 folds | IC50 (ErbB2): 250 nM and 254 nM | Increase in the level of active caspase-3 compared to control (human active caspase-3): 10.8 fold and 11 fold | Caspase3 conc. (human active caspase-3; mean ± SD of three experiments): 568.50 ± 14.0 pg/mL | IC50 (NCI-H460 (EGFR-WT); Homo sapiens, NCI-H460 (EGFR-WT) lung cancer, MTT, 48 h, mean ± SD of three experiments, read-out: IC50 (concentration required for 50% inhibition of cell viability)): 18.7 ± 0.71 µM | Potency relative to Erlotinib (fold more potent) (NCI-H460 (EGFR-WT); NCI-H460 EGFR-WT, from IC50 values): ~3.5 fold | %Apoptosis Early (OVCAR-4 cells [2]; OVCAR-4, 7d at IC50 (1.74 μM), 24 h, lower right quadrant): 7.52% | %Necrosis (OVCAR-4 cells [2]; OVCAR-4, 7d at IC50 (1.74 μM), 24 h, upper left quadrant): 2.88% | %Apoptosis Late (OVCAR-4 cells [2]; OVCAR-4, 7d at IC50 (1.74 μM), 24 h, upper right quadrant): 11.31% | Increase in percentage of Annexin V positive, PI positive cells (late apoptosis) versus control (OVCAR-4 cells [2]; OVCAR-4, at IC50, 24 h): 16 folds | Increase in percentage of Annexin-V positive cells (early apoptosis) versus control (OVCAR-4 cells [2]; OVCAR-4, at IC50, 24 h): ~9 folds | Increase in percentage of PI positive cells (necrotic cells) versus control (OVCAR-4 cells [2]; OVCAR-4, at IC50, 24 h): 7 folds | IC50 (NCI-H226): 17.4 ± 2.13 µM
